This is an account of results in ChEMBL document CHEMBL2062364, “Discovery and optimization of new benzimidazole- and benzoxazole-pyrimidone selective PI3Kβ inhibitors for the treatment of phosphatase and TENsin homologue (PTEN)-deficient cancers” (J Med Chem, 2012).

One may read the IC50 as the concentration needed to halve the response being measured.

Data set [1] in a line: Drug uptake in tumor of SCID mouse xenografted with PTEN-deficient human PC3 cells at 300 mg/kg, po BID measured after 0.5 hrs. It is filed as ADME, organism-based, Neoplasm, PC-3. The conditions noted are these: read-out: Drug uptake. Further details: dose 300 mg/kg, route oral. In general terms: Xenograft models place foreign cells or tissue in a host animal.
The nature of data set [2]: Drug uptake in tumor of SCID mouse xenografted with PTEN-deficient human PC3 cells at 300 mg/kg, po BID measured after 6 hrs. Further details: dose 300 mg/kg, route oral. It is filed as ADME, organism-based, Neoplasm, PC-3. To be noted: read-out: Drug uptake.
Data set [3] is described as follows: Plasma concentration in SCID mouse xenografted with PTEN-deficient human PC3 cells at 300 mg/kg, po BID measured after 6 hrs. Further details: dose 300 mg/kg, route oral. Format: ADME, organism-based, PC-3.
Data set [4] in a line: Drug metabolism in human liver microsomes. To be noted: read-out: Drug metabolism. It is filed as ADME, Microsome. (Liver microsomes are a subcellular fraction often used to study metabolism.)
Data set [5] is described as follows: Thermodynamic solubility of the compound in phosphate buffer at pH 7.4 after 16 hrs by HPLC analysis. It is filed as physicochemical. To be noted: read-out: Therm_solubility.
The target of data set [6] is T1, Phosphatidylinositol 4,5-bisphosphate 3-kinase catalytic subunit delta isoform (Homo sapiens, UniProt O00329).
T1 sequence (O00329 whole entry): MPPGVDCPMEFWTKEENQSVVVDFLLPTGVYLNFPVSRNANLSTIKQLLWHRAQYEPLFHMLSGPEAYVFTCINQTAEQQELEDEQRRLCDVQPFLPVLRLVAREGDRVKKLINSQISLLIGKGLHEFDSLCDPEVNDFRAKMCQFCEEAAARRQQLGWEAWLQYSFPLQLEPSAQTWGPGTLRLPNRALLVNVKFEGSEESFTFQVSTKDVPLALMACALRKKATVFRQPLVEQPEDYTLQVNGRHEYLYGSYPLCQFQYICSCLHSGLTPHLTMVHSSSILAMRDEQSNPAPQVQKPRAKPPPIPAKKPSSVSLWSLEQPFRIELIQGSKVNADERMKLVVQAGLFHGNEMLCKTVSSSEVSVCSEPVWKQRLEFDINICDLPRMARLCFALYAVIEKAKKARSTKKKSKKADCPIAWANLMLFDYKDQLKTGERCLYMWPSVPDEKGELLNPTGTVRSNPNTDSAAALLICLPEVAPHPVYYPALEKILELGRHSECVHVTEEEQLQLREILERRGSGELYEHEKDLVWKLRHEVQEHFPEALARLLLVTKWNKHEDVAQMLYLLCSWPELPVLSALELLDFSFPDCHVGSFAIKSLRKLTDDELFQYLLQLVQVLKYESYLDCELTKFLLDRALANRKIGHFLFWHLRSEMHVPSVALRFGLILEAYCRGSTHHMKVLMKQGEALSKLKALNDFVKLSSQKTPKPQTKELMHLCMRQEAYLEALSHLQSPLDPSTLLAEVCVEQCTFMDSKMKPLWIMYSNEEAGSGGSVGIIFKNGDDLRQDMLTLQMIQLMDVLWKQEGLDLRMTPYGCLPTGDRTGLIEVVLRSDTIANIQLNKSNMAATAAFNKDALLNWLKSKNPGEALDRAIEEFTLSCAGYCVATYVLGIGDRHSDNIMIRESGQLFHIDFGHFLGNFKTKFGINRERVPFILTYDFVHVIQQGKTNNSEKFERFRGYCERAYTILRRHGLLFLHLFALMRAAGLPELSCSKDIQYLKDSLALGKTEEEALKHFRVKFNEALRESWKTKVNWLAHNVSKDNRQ
Put plainly: Inhibition of human PI3Kdelta-mediated Akt phosphorylation at Ser473 residue expressed in mouse MEF-3T3 cells after 0.5 to 2 hrs by Western blot analysis. It is filed as cell-based. (Immunoblotting shows a protein as a band on a membrane.)

The target in data set [7] is Phosphatidylinositol 4,5-bisphosphate 3-kinase catalytic subunit alpha isoform (Homo sapiens, UniProt P42336). The experiment in a line: Inhibition of N-terminus poly-His tagged human PI3Kalpha expressed in baculovirus infected insect sf9 cells coexpressing p85alpha using PI(4,5)P2 as substrate preincubated with compound for 15 mins measured after 10 mins by HTRF assay.

Data set [8] in a line: Plasma concentration in SCID mouse xenografted with PTEN-deficient human PC3 cells at 300 mg/kg, po BID measured after 1 hr. It is filed as ADME, organism-based, PC-3. Further details: dose 300 mg/kg, route oral.

Structures are written as SMILES. ≈ marks a conversion by molar mass, not a printed value. A value given as a limit tells only on which side of the number the result lay.

Sequence of Phosphatidylinositol 4,5-bisphosphate 3-kinase catalytic subunit alpha isoform (P42336 whole entry, canonical isoform): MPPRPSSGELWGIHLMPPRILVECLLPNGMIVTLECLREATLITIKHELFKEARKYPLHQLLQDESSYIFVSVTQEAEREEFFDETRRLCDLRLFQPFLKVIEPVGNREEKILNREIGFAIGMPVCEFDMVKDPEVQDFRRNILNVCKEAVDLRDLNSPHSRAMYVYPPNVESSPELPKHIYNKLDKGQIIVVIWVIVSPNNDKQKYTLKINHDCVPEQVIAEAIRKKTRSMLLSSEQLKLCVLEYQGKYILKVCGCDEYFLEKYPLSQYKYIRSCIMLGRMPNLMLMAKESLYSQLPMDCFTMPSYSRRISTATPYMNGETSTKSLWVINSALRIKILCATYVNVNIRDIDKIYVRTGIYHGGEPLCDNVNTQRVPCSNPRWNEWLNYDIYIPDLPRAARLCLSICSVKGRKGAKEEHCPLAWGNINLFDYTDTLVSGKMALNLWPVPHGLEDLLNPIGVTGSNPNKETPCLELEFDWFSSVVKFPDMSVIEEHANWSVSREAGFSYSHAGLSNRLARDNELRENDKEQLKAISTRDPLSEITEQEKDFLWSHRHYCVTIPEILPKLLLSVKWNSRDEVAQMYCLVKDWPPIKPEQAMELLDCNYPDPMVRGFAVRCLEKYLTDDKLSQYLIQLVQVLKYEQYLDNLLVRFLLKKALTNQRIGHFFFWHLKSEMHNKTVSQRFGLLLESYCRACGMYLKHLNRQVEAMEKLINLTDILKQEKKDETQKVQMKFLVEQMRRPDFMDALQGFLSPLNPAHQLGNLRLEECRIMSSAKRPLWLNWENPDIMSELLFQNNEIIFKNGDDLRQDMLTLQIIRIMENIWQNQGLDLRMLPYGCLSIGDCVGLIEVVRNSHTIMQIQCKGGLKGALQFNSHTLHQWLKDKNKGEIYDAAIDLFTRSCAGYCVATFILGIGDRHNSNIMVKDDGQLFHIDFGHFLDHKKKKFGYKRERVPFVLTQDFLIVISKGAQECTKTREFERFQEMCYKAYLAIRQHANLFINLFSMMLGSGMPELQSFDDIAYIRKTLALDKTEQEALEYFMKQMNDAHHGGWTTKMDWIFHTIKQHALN

In the case of `Cn1c(Cc2nc(N3CCOCC3)cc(=O)[nH]2)nc2ccccc21`, in data set [1], the concentration at 0.5 h was found to be 13 µM. The concentration at 6 h in data set [2] worked out at 3.6 µM; in data set [3], 11 µM. Also, the metabolised in data set [4] came to 27%. Moreover, the solubility thermodynamic at 16 h in data set [5] amounted to 65 µM (≈ 21.1 µg/mL). The IC50 in data set [6] is 2650 nM; in data set [7], greater than 10000 nM. This compound registered a concentration at 1 h in data set [8] of 22 µM.
